Results reported in patent US9187424B1, “Aryl dihydropyridinones and piperidinone MGAT2 inhibitors” (Bristol-Myers Squibb Company, priority 2011, dated 2015).

Biological target: Human MGAT-2 (Homo sapiens (Human), UniProt Q3SYC2)
Experiment: MGAT LCMS Assay (human MGAT-2);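 also: diolein product quantified by LC/MS with positive APCI, expressed as peak area ratio versus an internal standard, and this ratio used to derive IC50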
Type: biochemical
Conditions: human MGAT-2 membranes expressed in Sf9 cells; 2-oleoylglycerol and oleoyl-Coenzyme A; read-out: h-MGAT2 IC50 (nM) LCMS Assay

Chain of Human MGAT-2 (Q3SYC2 whole entry): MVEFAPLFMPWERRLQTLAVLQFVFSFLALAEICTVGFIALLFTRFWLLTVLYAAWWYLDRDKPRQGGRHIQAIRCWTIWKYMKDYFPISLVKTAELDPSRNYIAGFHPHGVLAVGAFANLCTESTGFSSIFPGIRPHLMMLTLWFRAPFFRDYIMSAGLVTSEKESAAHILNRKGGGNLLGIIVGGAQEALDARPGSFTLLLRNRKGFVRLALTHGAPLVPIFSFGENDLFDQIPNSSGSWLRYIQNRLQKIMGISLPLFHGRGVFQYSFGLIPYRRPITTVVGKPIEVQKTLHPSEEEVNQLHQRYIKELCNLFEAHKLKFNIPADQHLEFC

IC50 [nM] | SMILES
11 | COc1ccc(C2=C(C#N)C(=O)NC(c3ccc(OCCCC(F)(F)F)cc3)(C(F)(F)F)C2)cc1C (stereo not shown) [Example 215]
440 | COc1ccc(C2=C(C#N)C(=O)NC(c3ccc(OCCCC(F)(F)F)cc3)(C(F)(F)F)C2)cc1OC (stereo not shown) [Example 216]
118 | Cc1ccc(C2=C(C#N)C(=O)NC(c3ccc(OCCCC(F)(F)F)cc3)(C(F)(F)F)C2)cc1C (stereo not shown) [Example 217]
166 | COc1ccc(C2=C(C#N)C(=O)NC(c3ccc(OCCCC(F)(F)F)cc3)(C(F)(F)F)C2)cc1F (stereo not shown) [Example 218]
172 | Cc1ccc(C2=C(C#N)C(=O)NC(c3ccc(OCCCC(F)(F)F)cc3)(C(F)(F)F)C2)cc1F (stereo not shown) [Example 219]
13 | N#CC1=C(c2ccc(Cl)c(F)c2)CC(c2ccc(OCCCC(F)(F)F)cc2)(C(F)(F)F)NC1=O (stereo not shown) [Example 220]
152 | Cc1cc(C2=C(C#N)C(=O)NC(c3ccc(OCCCC(F)(F)F)cc3)(C(F)(F)F)C2)ccc1Cl (stereo not shown) [Example 221]
733 | N#CC1=C(c2ccc(Cl)c(Cl)c2)CC(c2ccc(OCCCC(F)(F)F)cc2)(C(F)(F)F)NC1=O (stereo not shown) [Example 222]
112 | COc1ccc(C2=C(C#N)C(=O)NC(c3ccc(OCCCC(F)(F)F)cc3)(C(F)(F)F)C2)cc1Cl (stereo not shown) [Example 223]
206 | CCOc1ccc(C2=C(C#N)C(=O)NC(c3ccc(OCCCC(F)(F)F)cc3)(C(F)(F)F)C2)cc1Cl (stereo not shown) [Example 226]
34 | Cc1ccc(C2=C(NC(=O)c3ccn(C)n3)C(=O)NC(c3ccc(OCCCC(F)(F)F)cc3)(C(F)(F)F)C2)cc1 (stereo not shown) [Example 231]
40 | O=C1NC(c2ccc(OCCCC(F)(F)F)cc2)(C(F)(F)F)CC(c2ccc(Br)cc2)=C1c1nn[nH]n1 (stereo not shown) [Example 234]
22 | O=C1NC(c2ccc(OCCCC(F)(F)F)cc2)(C(F)(F)F)CC(c2ccc(C3CC3)cc2)=C1c1nn[nH]n1 (stereo not shown) [Example 235]
489 | O=C1NC(c2ccc(OCCCC(F)(F)F)cc2)(C(F)(F)F)CC(c2ccc(-n3cccn3)cc2)=C1c1nn[nH]n1 (stereo not shown) [Example 236]
130 | O=C1NC(c2ccc(OCCCC(F)(F)F)cc2)(C(F)(F)F)CC(c2ccc3c(c2)CCO3)=C1c1nn[nH]n1 (stereo not shown) [Example 237]
7 | CN(C)c1ccc(C2=C(c3nn[nH]n3)C(=O)NC(c3ccc(OCCCC(F)(F)F)cc3)(C(F)(F)F)C2)cc1 (stereo not shown) [Example 238]
15 | Cc1ccc(C2=C(NC(=O)CS(C)(=O)=O)C(=O)NC(c3ccc(OCCCC(F)(F)F)cc3)(C(F)(F)F)C2)cc1 (stereo not shown) [Example 239]
44 | O=C1NC(c2ccc(OCCC(F)(F)F)cc2)(C(F)(F)F)CC(c2ccc(OC(F)(F)F)cc2)=C1c1nn[nH]n1 (stereo not shown) [Example 242]
14 | O=C1NC(c2ccc(OCCCC(F)(F)F)cc2)(C(F)(F)F)CC(c2ccc(OC(F)(F)F)cc2)=C1c1nn[nH]n1 (stereo not shown) [Example 243]
61 | COc1ccc(C2=C(c3nn[nH]n3)C(=O)NC(c3ccc(OCCCC(F)(F)F)cc3)(C(F)(F)F)C2)cc1 (stereo not shown) [Example 244]

IC50 [nM] | SMILES
46 | O=C1NC(c2ccc(OCCCC(F)(F)F)cc2)(C(F)(F)F)CC(c2ccc(OC(F)F)cc2)=C1c1nn[nH]n1 (stereo not shown) [Example 245]
36 | Cc1ccc(C2=C(NC(=O)c3cn(C)nn3)C(=O)NC(c3ccc(OCCCC(F)(F)F)cc3)(C(F)(F)F)C2)cc1 (stereo not shown) [Example 246]
51 | COc1ccc(C2=C(c3nn[nH]n3)C(=O)NC(c3ccc(OCCCCCC(F)(F)F)cc3)(C(F)(F)F)C2)cc1 (stereo not shown) [Example 247]
185 | Cc1ccc(C2=C(NC(=O)c3ccccc3F)C(=O)NC(c3ccc(OCCCC(F)(F)F)cc3)(C(F)(F)F)C2)cc1 (stereo not shown) [Example 249]
243 | CC(=O)C(=O)NC1=C(c2ccc(C)cc2)CC(c2ccc(OCCCC(F)(F)F)cc2)(C(F)(F)F)NC1=O (stereo not shown) [Example 250]
7 | COc1ccc(C2=C(NC(=O)CS(C)(=O)=O)C(=O)NC(c3ccc(OCCCC(F)(F)F)cc3)(C(F)(F)F)C2)cc1 (stereo not shown) [Example 252]
411 | Cc1ccc(C2=C(NC(=O)[C@@H](C)O)C(=O)NC(c3ccc(OCCCC(F)(F)F)cc3)(C(F)(F)F)C2)cc1 (stereo partly shown) [Example 253]
702 | CCNC(=O)NC1=C(c2ccc(C)cc2)CC(c2ccc(OCCCC(F)(F)F)cc2)(C(F)(F)F)NC1=O (stereo not shown) [Example 255]
22 | Cc1ccc(C2=C(C#N)C(=O)NC(c3ccc(OCCCC(F)(F)F)cc3)(C(F)(F)F)C2)cc1F (stereo not shown) [Example 256]
1150 | COc1ccc(C2=C(C#N)C(=O)NC(c3ccc(OCCCC(F)(F)F)cc3)(C(F)(F)F)C2)cc1Cl (stereo not shown) [Example 258]
15 | Cc1ccc(C2=C(C#N)C(=O)NC(c3ccc(OCCCC(F)(F)F)cc3)(C(F)(F)F)C2)cc1Cl (stereo not shown) [Example 259]
56 | COCc1ccc(C2=C(C#N)C(=O)NC(c3ccc(OCCCC(F)(F)F)cc3)(C(F)(F)F)C2)cc1 (stereo not shown) [Example 260]
1220 | N#CC1=C(c2ccc(OC(F)(F)F)c(F)c2)CC(c2ccc(OCCCC(F)(F)F)cc2)(C(F)(F)F)NC1=O (stereo not shown) [Example 261]
96 | COc1cc(C2=C(C#N)C(=O)NC(c3ccc(OCCCC(F)(F)F)cc3)(C(F)(F)F)C2)ccc1C (stereo not shown) [Example 262]
103 | CCOc1ccc(C2=C(C#N)C(=O)NC(c3ccc(OCCCC(F)(F)F)cc3)(C(F)(F)F)C2)cc1Cl (stereo not shown) [Example 263]
46 | CCOc1ccc(C2=C(C#N)C(=O)NC(c3ccc(OCCCC(F)(F)F)cc3)(C(F)(F)F)C2)cc1F (stereo not shown) [Example 264]
12 | O=C1NC(c2ccc(OCCCC(F)(F)F)cc2)(C(F)(F)F)CC(c2ccc(CC(F)(F)F)cc2)=C1c1nn[nH]n1 (stereo not shown) [Example 271]
3 | Cc1ccc(C2=C(C(=O)Nc3cc(C)no3)C(=O)NC(c3ccc(OCCCC(F)(F)F)cc3)(C(F)(F)F)C2)cc1 (stereo not shown) [Example 281]
4 | Cc1ccc(C2=C(c3nn[nH]n3)C(=O)NC(c3ccc(OCCCC(F)(F)F)cc3)(C(F)(F)F)C2)c(F)c1 (stereo not shown) [Example 286]

Continued, molecule first:

SMILES | IC50 [nM]
Cc1ccc(C2=C(c3nn[nH]n3)C(=O)NC(c3ccc(OCCCC(F)(F)F)cc3)(C(F)F)C2)cc1 (stereo not shown) [Example 213] | 1100
COc1ccc(C(=O)NC2=C(c3ccc(C)cc3)CC(c3ccc(OCCCC(F)(F)F)cc3)NC2=O)cc1 (stereo not shown) [Example 214] | 12
COOSNc1ccc(C2=C(C#N)C(=O)NC(c3ccc(OCCCC(F)(F)F)cc3)(C(F)(F)F)C2)cc1 (stereo not shown) [Example 225] | 889
Cc1ccc(C2=C(C#N)C(=O)NC(c3cnn(CCCCC(F)(F)F)c3)(C(F)(F)F)C2)cc1 (stereo not shown) [Example 227] | 63
COc1ccc(C(=O)NC2=C(c3ccc(C)cc3)CC(c3cnn(CCCCCC(F)(F)F)c3)(C(F)(F)F)NC2=O)cc1 (stereo not shown) [Example 228] | 7
COc1ccc(C(=O)NC2=C(c3ccc(C)cc3)CC(c3cnn(CCCCC(F)(F)F)c3)(C(F)(F)F)NC2=O)cc1 (stereo not shown) [Example 229] | 25
CCCCCn1cc(C2(C(F)(F)F)CC(c3ccc(C)cc3)=C(C#N)C(=O)N2)cn1 (stereo not shown) [Example 230] | 1530
COc1ccc(C(=O)NC2=C(c3ccc(C)cc3)CC(c3ccc(OCCCC(F)(F)F)cc3)(C(F)(F)F)NC2=O)nn1 (stereo not shown) [Example 232] | 6
Cc1ccc(C2=C(c3nn[nH]n3)C(=O)NC(c3ccc(Br)cc3)(C(F)(F)F)C2)cc1 (stereo not shown) [Example 233] | 639
COc1ccc(C2=C(c3nn[nH]n3)C(=O)NC(c3ccc(OCC(F)(F)F)cc3)(C(F)(F)F)C2)cc1 (stereo not shown) [Example 240] | 7
O=C1NC(c2ccc(OCCCCCC(F)(F)F)cc2)(C(F)(F)F)CC(c2ccc(OCC(F)F)cc2)=C1c1nn[nH]n1 (stereo not shown) [Example 248] | 8
CS(=O)(=O)CC(=O)NC1=C(c2ccc(OCC(F)F)cc2)CC(c2ccc(OCCCC(F)(F)F)cc2)(C(F)(F)F)NC1=O (stereo not shown) [Example 251] | 3
CCNC(=O)NC1=C(c2ccc(OCC(F)F)cc2)CC(c2ccc(OCCCC(F)(F)F)cc2)(C(F)(F)F)NC1=O (stereo not shown) [Example 254] | 170
COOCNc1ccc(C2=C(C#N)C(=O)NC(c3ccc(OCCCC(F)(F)F)cc3)(C(F)(F)F)C2)cc1 (stereo not shown) [Example 257] | 421
Cc1ccc(C2=C(c3nn[nH]n3)C(=O)NC(c3cccc(OCCCC(F)(F)F)c3)(C(F)(F)F)C2)cc1 (stereo not shown) [Example 267] | 796
O=C1NC(c2ccc(OCCCCCC(F)(F)F)cc2F)(C(F)(F)F)CC(c2ccc(OC(F)F)cc2)=C1c1nn[nH]n1 (stereo not shown) [Example 274] | 1
O=C1NC(c2ccc(OCCCC(F)(F)F)cc2)(C(F)(F)F)CC(c2ccc(OC(F)F)cc2)=C1NC(=O)c1ccncc1 (stereo not shown) [Example 275] | 2
O=C1NC(c2ccc(OCCCCCC(F)(F)F)cc2F)(C(F)(F)F)CC(c2ccc3ccccc3c2)=C1c1nn[nH]n1 (stereo not shown) [Example 276] | 2
O=C1NC(c2ccc(OCCCC(F)(F)F)cc2F)(C(F)(F)F)CC(c2ccc(CC3CC3)cc2)=C1c1nn[nH]n1 (stereo not shown) [Example 277] | 2
Cc1ccc(C2=C(c3nn[nH]n3)C(=O)NC(c3ccc(OCCCCC(F)(F)F)cc3F)(C(F)(F)F)C2)cc1 (stereo not shown) [Example 278] | 2
Cc1ccc(C2=C(NC(=O)CS(C)(=O)=O)C(=O)NC(c3ccc(OCc4ccccc4)cc3)(C(F)(F)F)C2)cc1 (stereo not shown) [Example 279] | 2
O=C(Nc1cccnc1)C1=C(c2ccc(OC(F)F)cc2)CC(c2ccc(OCCCC(F)(F)F)cc2)(C(F)(F)F)NC1=O (stereo not shown) [Example 280] | 2
CCOP(=O)(CC(=O)NC1=C(c2ccc(C)cc2)CC(c2ccc(OCCCC(F)(F)F)cc2)(C(F)(F)F)NC1=O)OCC (stereo not shown) [Example 282] | 3
CCOc1ccc(C2=C(c3nn[nH]n3)C(=O)NC(c3ccc(OCCCCCC(F)(F)F)cc3F)(C(F)(F)F)C2)cc1 (stereo not shown) [Example 283] | 3
O=C1NC(c2ccc(OCCCCCC(F)(F)F)cc2F)(C(F)(F)F)CC(c2ccc(CC(F)(F)F)cc2)=C1c1nn[nH]n1 (stereo not shown) [Example 284] | 4
Cc1ccc(C2=C(c3nn[nH]n3)C(=O)NC(c3ccc(OCCC4CC4)cc3)(C(F)(F)F)C2)cc1 (stereo not shown) [Example 285] | 4
Cc1ccc(C2=C(c3nn[nH]n3)C(=O)NC(c3ccc(OCCCCCC(F)(F)F)c(C)c3)(C(F)(F)F)C2)cc1 (stereo not shown) [Example 287] | 13
Cc1ccc(C2=C(c3nn[nH]n3)C(=O)NC(c3ccc(OCC4CC(F)(F)C4)cc3)(C(F)(F)F)C2)cc1 (stereo not shown) [Example 288] | 19
